Reference: patent US6967196B1, “Sulfonamide compounds and uses thereof” (Bristol-Myers Squibb Company, priority 1999, dated 2005)
Counter-ions that a name gives are not always drawn. Like-named read-outs stand apart in the source and are kept apart here. Values belong to the compound of their own block, whether it stands above or below them.

Tested on: amyloid β production in transfected H4 (human neuroglioma) cells stably expressing APP constructs
Test: In vitro cell-based assay of inhibitors of amyloid β production (ELISA)
Conditions: amyloid β in medium by ELISA
Method in brief: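 Sandwich ELISA read-out: Aβ in conditioned medium captured via C-terminal epitope mAb, detected with N-terminus-specific rabbit polyclonal, quantified from a standard curve. Compounds 10-100 μM, ~16 h exposure. Active = ≥50% inhibition vs control without significant cytotoxicity; dose-response follows.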

[1] = transfected H4 cells stably expressing APP constructs, approximately 16 hours incubation, read-out: ACTIVITY (IC50, inhibition of amyloid β production)
[2] = Homo sapiens, 16 h, transfected H4 cells expressing APP, approximately 16 hours incubation, read-out: ACTIVITY (IC50, inhibition of amyloid β production)
[3] = transfected H4 cells stably expressing APP, approximately 16 hours incubation, read-out: ACTIVITY (IC50, inhibition of amyloid β production)
[4] = transfected H4 cells stably expressing APP, approx. 16 h incubation, read-out: ACTIVITY (IC50, inhibition of amyloid β production)
[5] = Homo sapiens, 16 h, transfected H4 cells stably expressing APP, approx. 16 h incubation, read-out: ACTIVITY (IC50, inhibition of amyloid β production)
[6] = Homo sapiens, 16 h, transfected H4 cells stably expressing APP constructs, approximately 16 hours incubation, read-out: ACTIVITY (IC50, inhibition of amyloid β production)
[7] = transfected H4 cells stably expressing APP, approximately 16 hours incubation, Table B, read-out: ACTIVITY (IC50, inhibition of amyloid β production)
[8] = Table B, transfected H4 cells stably expressing APP, approximately 16 hours incubation, read-out: ACTIVITY (inhibitory concentration IC50, inhibition of amyloid β production)
[9] = Homo sapiens, 16 h, transfected H4 cells stably expressing APP, approximately 16 hours incubation, read-out: ACTIVITY (IC50, inhibition of amyloid β production)

Compound: C[C@H](CCN1CCCC(S(C)(=O)=O)C1)N(c1cc(Cl)ccc1Cl)S(=O)(=O)c1ccc(Cl)cc1 (stereo partly drawn) [Example 1132, 4-chloro-N-(2,5-dichlorophenyl)-N-[3-[(3-methylsulfonyl)-1-piperidinyl]-1(R)-methylpropyl]benzenesulfonamide]
IC50 [1]: 50 to 100 nM

IC50 [2]: > 500 nM
Compound: CCC(C)(C)c1ccc(OCCCCNC(=O)[C@@H](C)N(c2cc(Cl)ccc2F)S(=O)(=O)c2ccc(Cl)cc2)c(C(C)(C)CC)c1 [Example 1348]

IC50 [3]: > 500 nM
Compound: N-{3-[2-({[(4-chlorophenyl)sulfonyl]-2,5-difluoroanilino}methyl)phenoxy]propyl}-4-ethoxy-N-methylbenzamide [Example 1010]

IC50 [4]: 100 to 500 nM
Compound: 2-((1R)-1-{[(4-chlorophenyl)sulfonyl]-2,5-difluoroanilino}ethyl)-5-fluorobenzyl 2-methoxyethylcarbamate [Example 729]

IC50 [5]: 100 to 500 nM
Compound: CC(c1ccccc1OCCN(C)S(=O)(=O)C(C)C)N(c1cc(F)ccc1F)S(=O)(=O)c1ccc(Cl)cc1 (centres unmarked) [Example 735, 4-chloro-N-(2,5-difluorophenyl)-N-[1-(2-{2-[(isopropylsulfonyl)(methyl)amino]ethoxy}phenyl)ethyl]benzenesulfonamide]

IC50 [2]: 100 to 500 nM
Compound: C[C@H](C(=O)NCC1CCCO1)N(c1cc(Cl)ccc1F)S(=O)(=O)c1ccc(Cl)cc1 (some centres unmarked) [Example 1321]

IC50 [4]: 100 to 500 nM
Compound: N-{3-[2-({[(4-chlorophenyl)sulfonyl]-2,5-difluoroanilino}methyl)phenoxy]propyl}-4-fluoro-N-methylbenzamide [Example 747]

IC50 [2]: > 500 nM
Compound: C[C@H](C(=O)NCCc1ccc(F)cc1)N(c1cc(Cl)ccc1F)S(=O)(=O)c1ccc(Cl)cc1 [Example 1326]

IC50 [3]: 100 to 500 nM
Compound: N-{3-[2-({[(4-chlorophenyl)sulfonyl]-2,5-difluoroanilino}methyl)phenoxy]propyl}-N-methyl-1-naphthamide [Example 821]

IC50 [6]: 100 to 500 nM
Compound: CC(CCCN=[N+]=[N-])N(c1cc(Cl)ccc1Cl)S(=O)(=O)c1ccc(Cl)cc1 (centres unmarked) [Example 1138, 4-chloro-N-(2,5-dichlorophenyl)-N-[4-(azido)-1-methylbutyl]benzenesulfonamide]

IC50 [5]: 100 to 500 nM
Compound: CC(c1ccccc1OCCCN(C)S(=O)(=O)c1ccc(Cl)cc1)N(c1cc(F)ccc1F)S(=O)(=O)c1ccc(Cl)cc1 (centres unmarked) [Example 794, 4-chloro-N-[1-(2-{3-[[(4-chlorophenyl)sulfonyl](methyl)amino]propoxy}phenyl)ethyl]-N-(2,5-difluorophenyl)benzenesulfonamide]

Compound: C[C@H](COC(=O)NCCCn1ccnc1)N(c1cc(F)ccc1F)S(=O)(=O)c1ccc(Cl)cc1 [Example 1239, 4-Chloro-N-(2,5-difluorophenyl)-N-[2-[[N′-[3-(1H-imidazol-1-yl)propylamino]carbonyl]oxy]-(R)-1-methylethyl]benzenesulfonamide]
IC50 [1]: ≤ 25 nM

Compound: CC(C)[S+]([O-])CCC[C@@H](C)N(c1cc(F)ccc1F)S(=O)(=O)c1ccc(Cl)cc1 (some centres unmarked) [Example 1179]
IC50 [1]: ≤ 25 nM

IC50 [3]: > 500 nM
Compound: 5-[2-((1R)-1-{[(4-chlorophenyl)sulfonyl]-2,5-difluoroanilino}ethyl)-5-fluorophenyl]butanoic acid [Example 1070]

Compound: O=S(=O)(c1ccc(Cl)cc1)N(Cc1ccc2ccccc2c1OCCCN1CCCCC1)c1cc(F)ccc1F [Example 272, 4-Chloro-N-(2,5-difluorophenyl)-N-({1-[3-(1-piperidinyl)propoxy]-2-naphthylmethyl)benzenesulfonamide Hydrochloride]
IC50 [7]: 25 to 50 nM

Compound: CC(C)[C@@H](NC(=O)CCC[C@@H](C)N(c1cc(Cl)ccc1F)S(=O)(=O)c1ccc(Cl)cc1)C(=O)O [Example 1270, (R)-4-Chloro-N-(5-chloro-2-fluorophenyl)-N-[5-[N-(R)-[1-(carboxy)-2-methylpropyl]amino]-1-methyl-5-oxopentyl]benzenesulfonamide]
IC50 [1]: 25 to 50 nM

IC50 (Homo sapiens, 16 h, transfected H4 cells stably expressing APP, approximately 16 hours incubation, Table B, read-out: ACTIVITY (IC50, inhibition of amyloid β production)): 50 to 100 nM
Compound: CC(c1ccccc1OCCN(C)C(=O)N(C)C)N(c1cc(F)ccc1F)S(=O)(=O)c1ccc(Cl)cc1 (centres unmarked) [Example 397, 4-chloro-N-(2,5-difluorophenyl)-N-[1-(2-{2-[[(dimethylamino)carbonyl](methyl)amino]ethoxy}phenyl)ethyl]benzenesulfonamide]

IC50 [3]: > 500 nM
Compound: (2R)-2-{[(4-chlorophenyl)sulfonyl]-2,5-difluoroanilino}propyl nicotinate [Example 1058]

IC50 [4]: 100 to 500 nM
Compound: N-{2-[2-(1-{[(4-chlorophenyl)sulfonyl]-2,5-difluoroanilino}ethyl)phenoxy]ethyl}-N-ethyl-1-adamantanecarboxamide [Example 769]

IC50 [3]: > 500 nM
Compound: S-methyl 2-[2-(1-{[(4-chlorophenyl)sulfonyl]-2,5-difluoroanilino}ethyl)phenoxy]ethyl(methyl)thiocarbamate [Example 983]

IC50 [2]: > 500 nM
Compound: CCCCCCCCCCCCCCNC(=O)[C@@H](C)N(c1cc(Cl)ccc1F)S(=O)(=O)c1ccc(Cl)cc1 [Example 1337]

Compound: CN1C2CCC1[C@@H](COc1ccccc1CN(c1ccccc1)S(=O)(=O)c1ccc(Cl)cc1)C2 (stereo partly drawn) [Example 300, 4-Chloro-N-(2-{[(2S)-7-methyl-7-azabicyclo[2.2.1]hept-2-yl]methoxy]benzyl)-N-phenylbenzenesulfonamide Hydrochloride]
IC50 [7]: 50 to 100 nM

IC50 [4]: 100 to 500 nM
Compound: N-{3-[2-(1-{[(4-chlorophenyl)sulfonyl]-2,5-difluoroanilino}ethyl)phenoxy]propyl}-4-fluoro-N-methylbenzamide [Example 654]

IC50 [6]: > 500 nM
Compound: CC([C@@H]1CCCN1C(=O)OC(C)(C)C)N(c1cc(Cl)ccc1Cl)S(=O)(=O)c1ccc(Cl)cc1 (stereo in doubt) [Example 1255, 4-chloro-N-(2,5-dichlorophenyl)-N-[1-(S)-[1-[(1,1-dimethylethoxy)carbonyl]pyrrolidin-2-yl]ethyl]benzenesulfonamide]

IC50 [8]: ≤ 25 nM
Compound: c1cn(CCCNCC2CC2)cn1 [Example 58, N-cyclopropylmethyl-3-(1H)-imidazolylpropylamine]

IC50 [9]: > 500 nM
Compound: O=[N+]([O-])c1ccc(CN(Cc2ccccc2OCCCN2CCCCC2)S(=O)(=O)c2ccc(Cl)cc2)cc1 [Example 998, 4-chloro-N-(4-nitrobenzyl)-N-{2-[3-(1-piperidinyl)propoxy]benzyl}benzenesulfonamide hydrochloride]

IC50 [3]: 100 to 500 nM
Compound: 4-chloro-N-{3-[2-(1-{[(4-chlorophenyl)sulfonyl]-2,5-difluoroanilino}ethyl)phenoxy]propyl}-N-methyl-3-nitrobenzenesulfonamide [Example 807]

IC50 [4]: 100 to 500 nM
Compound: N-{2-[2-(1-{[(4-chlorophenyl)sulfonyl]-2,5-difluoroanilino}ethyl)phenoxy]ethyl}-N-ethylbutanamide [Example 646]

IC50 [9]: > 500 nM
Compound: O=S(=O)(c1ccc(Cl)cc1)N(Cc1ccccc1OCCC1CCCCN1Cc1cccc(F)c1F)c1cc(F)ccc1F (centres unmarked) [Example 933, 4-chloro-N-(2-{2-[1-(2,3-difluorobenzyl)-2-piperidinyl]ethoxy}benzyl)-N-(2,5-difluorophenyl)benzenesulfonamide]

Compound: CSC1CCCN(CCC[C@@H](C)N(c2cc(Cl)ccc2Cl)S(=O)(=O)c2ccc(Cl)cc2)C1 (stereo partly drawn) [Example 1153, 4-chloro-N-(2,5-dichlorophenyl)-N-[4-[(3-methylthio)-1-piperidinyl]-1(R)-methylbutyl]benzenesulfonamide]
IC50 [1]: 100 to 500 nM

IC50 [3]: > 500 nM
Compound: N-{3-[2-({[(4-chlorophenyl)sulfonyl]-2,5-difluoroanilino}methyl)phenoxy]propyl}-N-methyl-1,3-benzodioxole-5-carboxamide [Example 903]

IC50 [6]: > 500 nM
Compound: C[C@H](CCCN(c1cc(Cl)ccc1Cl)S(=O)(=O)c1ccc(Cl)cc1)N(c1cc(Cl)ccc1Cl)S(=O)(=O)c1ccc(Cl)cc1 [Example 1158, 4-chloro-N-(2,5-dichlorophenyl)-N-[4-[N-(2,5-dichlorophenyl)-N-[(4-chlorophenyl)sulfonyl]amino]-1(R)-methylbutyl]benzenesulfonamide]

IC50 [3]: > 500 nM
Compound: N-{3-[2-(1-{[(4-chlorophenyl)sulfonyl]-2,5-difluoroanilino}ethyl)phenoxy]propyl}-N-methyl-2,5-bis(trifluoromethyl)benzamide [Example 892]

Compound: O=S(=O)(c1ccc(Cl)cc1)N(Cc1ccccc1OCCCn1ccnc1)c1ccccc1 [Example 882, 4-chloro-N-{2-[3-(1H-imidazol-1-yl)propoxy]benzyl}-N-phenylbenzenesulfonamide hydrochloride]
IC50 [9]: > 500 nM

IC50 [8]: ≤ 25 nM
Compound: CC(C)(C)[Si](C)(C)OCCCCCO [Example 1, (S)-5-[[dimethyl(1,1-dimethylethyl)silyl]oxy]-1-pentanol]
